Tests used:
[1] = system: UACC 903 melanoma cells; assay: Natural product library NPL-480 primary screen, MTS viability; assay type: cell-based; conditions: Homo sapiens, 5 μmol/L, 24 hours, MTS assay, read-out: decrease of cell viability
Description: Natural product library NPL-480 (from TimTec Inc., Newark, Del.) consisting of 480 compounds derived from plants, animal, bacteria and fungus is screened using MTS assay to identify agents reducing cell growth of melanoma cells. Compounds of the NPL-480 library that are supplied as powders or oils are dissolved in DMSO to a stock concentration of 10 mM and stored at −20° C. DMSO concentrations in the reaction mixture are controlled to not exceed 0.5% (vol/vol). 5×10^3 UACC 903 melanoma cells are plated in 96 well plates for 24 hours followed by treatment with each compound at 5 μmol/L for 24 hours. Viability is measured using the MTS assay as described in Sharma, A. et al., Clin Cancer Res, 2009, 15:1674-85; and Madhunapantula, S. V. et al., Mol Cancer Ther, 2008, 7:1297-308. This primary screen identified 12 compounds effective to decrease melanoma cells viability by ˜50% or more.

[2] = system: UACC 903 and 1205 Lu cells; assay: BrdU incorporation proliferation assay; assay type: cell-based, human; conditions: 0.62 to 10 μmol/L, 24 hours
Description: The mechanistic basis of leelamine's activity to inhibit melanoma cell growth is determined by examining the effect of leelamine on 1) cell viability using the MTS assay; 2) proliferation using a BrdU incorporation assay; 3) apoptosis using an assay for caspase-3/7 activity; and 4) cell cycle analysis. The MTS assay as described in Sharma, A. et al., Clin Cancer Res, 2009, 15:1674-85; and Madhunapantula, S. V. et al., Mol Cancer Ther, 2008, 7:1297-308 is used to assay cell viability. Rates of proliferation and apoptosis are measured by seeding 5×10^3 cells in 96-well plates, followed by treatment with 0.62 to 10 μmol/L of leelamine for 24 hours. Proliferating and apoptotic cells are quantified using a colorimetric cell proliferation ELISA BrdU kit (Roche diagnostics, Indianapolis, Ind.) or Apo-ONE Homogenous caspase-3/7 assay kit (Promega, Madison, Wis.), respectively, as described in Sharma, A. et al., Clin Cancer Res, 2009, 15:1674-85; and Madhunapantula, S. V. et al., Mol Cancer Ther, 2008, 7:1297-308.

[3] = system: UACC 903 xenograft tumors; assay: Size and time matched tumors (Ki-67, TUNEL, CD31, Western blot); assay type: in vivo, mice
Text: Rates of cell proliferation (using Ki-67), apoptosis (using terminal deoxynucleotidyl transferase-mediated dUTP nick-end labeling) and tumor angiogenesis (using CD31 staining) are quantified in time and size matched tumors treated with leelamine compared with DMSO treated control animals to identify the underlying mechanism by which leelamine inhibits melanoma tumor development using an established method described in Sharma, A. et al., Clin Cancer Res, 2009, 15:1674-85; Madhunapantula, S. V. et al., Mol Cancer Ther, 2008, 7:1297-308; Sharma, A. et al., Cancer Res, 2006, 66:8200-9; and Stahl, J. M. et al., Cancer Res, 2003, 63:2881-90. Size and time matched tumors at each time are compared to identify the first statistically quantifiable difference(s) affected by leelamine treatment in the rates of processes regulating tumor development i.e. cell proliferation, apoptosis or vascular development. […] Cell proliferation is measured using mouse anti-human Ki-67 staining from Pharmigen (San Diego, Calif.). Apoptosis rates are scored using “terminal deoxynucleotidyl transferase-mediated dUTP nick end labeling (TUNEL)” TMR Red Apoptosis kit from Roche (Mannheim, Germany). […] The number of Ki-67 and TUNEL positive cells is quantified as the percentage of total cells in tumors using the IP Lab imaging software program. For CD31, the area occupied by blood vessels is measured. […]

`CC(C)c1ccc2c(c1)CCC1[C@](C)(CN)CCC[C@]21C` (stereo partly drawn) [Leelamine, [(1R,4aS)-1,4a-dimethyl-7-(propan-2-yl)-1,2,3,4,4a,9,10,10a-octahydrophenanthren-1-yl]methanamine] was tested, and the cytotoxicity at 5 µM [1] was about 95%, the “proliferation (BrdU incorporation)” value [2] was “decrease proliferation” and the “reduction in proliferating cells (Ki-67)” value ([3]; day 11, i.p. 7.5 mg/kg daily from day 6, vs DMSO) was 50%. For the same molecule, the “active pAkt in tumor lysates (Western blot)” value ([3]; days 11, 13 and 15, treated from day 6) was “decreased active pAkt”.
